Reference: ChEMBL document CHEMBL5236643, “Discovery and characterization of orally bioavailable 4-chloro-6-fluoroisophthalamides as covalent PPARG inverse-agonists” (Bioorg Med Chem, 2023)
In brackets after ≈: the same amount, converted by molar mass. Activity calls are given as the source filed them. The calls are words filed in the database; no cut-off is given here.

What was measured:
[1] = Stability of compound in GSH at pH 7.4 assessed as parent compound remaining at 10 mM and measured after 4 hrs by HPLC-UV analysis; assay type: physicochemical; details: GSH solution, read-out: Stability
[2] = Cmax in NMRI-nu/nu mouse at 100 mg/kg,po measured upto 24 hrs by HPLC-MS/MS analysis; assay type: ADME, organism-based; set-up: time < 24 hrs, dose 100 mg/kg, route po; details: in vivo
[3] = Half life in Wistar rat at 1 mg/kg,iv measured upto 24 hrs by HPLC-MS/MS analysis; assay type: ADME, organism-based; details: in vivo
[4] = Stability of compound in cysteine at pH 7.4 assessed as parent compound remaining at 10 mM and measured after 24 hrs by HPLC-UV analysis; assay type: physicochemical; details: cysteine solution, read-out: Stability
[5] = Microsomal stability in human liver microsomes assessed as intrinsic clearance at 1 uM measured upto 60 mins in presence of NADPH by HPLC-MS/MS analysis; assay type: ADME, Microsome; details: read-out: CLH (converted)
[6] = target: T1, Peroxisome proliferator-activated receptor gamma (Mus musculus) (UniProt P37238); experiment: Inverse agonist activity at PPARgamma in NMRI-nu/nu mouse assessed as reduction in Fabp4 mRNA expression in adipose tissue at 100 mg/kg for 3 days and measured 6 hrs last dose by qPCR analysis; assay type: organism-based; details: time 3.0 day
T1 sequence (whole entry): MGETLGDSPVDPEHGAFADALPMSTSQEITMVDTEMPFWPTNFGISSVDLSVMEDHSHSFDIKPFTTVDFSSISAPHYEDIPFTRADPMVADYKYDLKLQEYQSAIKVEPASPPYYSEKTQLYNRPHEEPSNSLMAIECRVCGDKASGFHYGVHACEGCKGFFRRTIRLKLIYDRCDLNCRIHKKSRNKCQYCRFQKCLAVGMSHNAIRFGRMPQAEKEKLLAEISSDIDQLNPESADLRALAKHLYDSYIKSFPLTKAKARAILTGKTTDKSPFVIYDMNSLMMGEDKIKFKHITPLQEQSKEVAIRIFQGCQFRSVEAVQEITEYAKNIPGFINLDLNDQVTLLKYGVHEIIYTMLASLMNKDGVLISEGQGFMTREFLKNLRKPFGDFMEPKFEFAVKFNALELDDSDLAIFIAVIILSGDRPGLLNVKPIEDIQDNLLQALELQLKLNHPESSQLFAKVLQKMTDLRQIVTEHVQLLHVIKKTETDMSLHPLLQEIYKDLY

[7] = Stability of compound in GSH at pH 7.4 assessed as parent compound remaining at 10 mM and measured after 2 hrs by HPLC-UV analysis; assay type: physicochemical; details: GSH solution, read-out: Stability
[8] = target: T2, Nuclear receptor subfamily 1 group I member 2 (Homo sapiens, UniProt O75469); experiment: Transactivation of human PXR in human HepG2 cells co-expressing luciferase gene under control of CYP3A4 promoter assessed as increase in luciferase activity incubated for 24 hrs by luminescence based analysis; assay type: ADME, cell-based
T2 sequence (O75469 whole entry): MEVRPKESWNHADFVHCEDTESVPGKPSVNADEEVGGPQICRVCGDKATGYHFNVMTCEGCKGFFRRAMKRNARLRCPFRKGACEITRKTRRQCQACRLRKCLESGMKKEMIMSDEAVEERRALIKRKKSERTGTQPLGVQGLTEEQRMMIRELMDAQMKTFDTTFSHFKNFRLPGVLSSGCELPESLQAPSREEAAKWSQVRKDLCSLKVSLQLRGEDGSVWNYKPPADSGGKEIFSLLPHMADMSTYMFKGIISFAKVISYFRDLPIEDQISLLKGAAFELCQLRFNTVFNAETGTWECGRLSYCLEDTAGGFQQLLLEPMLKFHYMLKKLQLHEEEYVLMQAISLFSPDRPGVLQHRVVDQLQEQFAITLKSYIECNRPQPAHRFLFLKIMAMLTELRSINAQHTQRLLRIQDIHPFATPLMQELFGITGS

[9] = Volume of distribution at steady state in Wistar rat at 1 mg/kg,iv measured upto 24 hrs by HPLC-MS/MS analysis; assay type: ADME, organism-based; details: in vivo, read-out: Vdss
[10] = Stability of compound in cysteine at pH 7.4 assessed as parent compound remaining at 10 mM and measured after 2 hrs by HPLC-UV analysis; assay type: physicochemical; details: cysteine solution, read-out: Stability
[11] = Stability of compound in cysteine at pH 7.4 assessed as parent compound remaining at 10 mM and measured after 1 hrs by HPLC-UV analysis; assay type: physicochemical; details: cysteine solution, read-out: Stability
[12] = Antiproliferative activity against human UM-UC-9 assessed as inhibition of cell proliferation measured after 7 days by IncuCyte live-cell imaging assay; details: UM-UC-9, 168 h
[13] = AUClast in Wistar rat at 1 mg/kg,iv measured upto 24 hrs by HPLC-MS/MS analysis; assay type: ADME, organism-based; set-up: time < 24 hrs, dose 1 mg/kg, route iv; details: in vivo
[14] = Stability of compound in GSH at pH 7.4 assessed as parent compound remaining at 10 mM and measured after 1 hrs by HPLC-UV analysis; assay type: physicochemical; details: GSH solution, read-out: Stability
[15] = Apparent permeability across basolateral to apical side in human Caco-2 cells at 2 uM incubated for 2 hrs by LC-MS/MS analysis; assay type: ADME, cell-based
[16] = target: T1, Peroxisome proliferator-activated receptor gamma (Mus musculus); experiment: Inverse agonist activity at PPARgamma in NMRI-nu/nu mouse assessed as decrease in Acaab1 mRNA expression in adipose tissue at 100 mg/kg for 3 days and measured upto 15 hrs last dose by qPCR analysis; assay type: organism-based; details: filed as inverse agonist, time 3.0 day
[17] = Stability of compound in GSH at pH 7.4 assessed as parent compound remaining at 10 mM and measured after 24 hrs by HPLC-UV analysis; assay type: physicochemical; details: GSH solution, read-out: Stability
[18] = Stability in rat hepatocytes assessed as intrinsic clearance at 1 uM incubated for 1 hr by HPLC-MS/MS analysis; assay type: ADME, cell-based, Hepatocyte; details: read-out: CLH (converted)
[19] = Stability of compound in cysteine at pH 7.4 assessed as parent compound remaining at 10 mM and measured after 4 hrs by HPLC-UV analysis; assay type: physicochemical; details: cysteine solution, read-out: Stability
[20] = Antiproliferative activity against human UM-UC-9 assessed as inhibition of cell proliferation by measuring maximum efficacy after 7 days by IncuCyte live-cell imaging assay; assay type: functional; details: UM-UC-9, 168 h, time 7 day
[21] = Clearance in Wistar rat at 1 mg/kg,iv measured upto 24 hrs by HPLC-MS/MS analysis; assay type: ADME, organism-based; details: in vivo
[22] = Tmax in NMRI-nu/nu mouse at 100 mg/kg,po measured upto 24 hrs by HPLC-MS/MS analysis; assay type: ADME, organism-based; details: in vivo
[23] = Thermodynamic solubility of compound at pH 6.5 PBS buffer; assay type: physicochemical; details: read-out: Therm_solubility
[24] = AUClast in NMRI-nu/nu mouse at 100 mg/kg,po measured upto 24 hrs by HPLC-MS/MS analysis; assay type: ADME, organism-based; set-up: time < 24 hrs, dose 100 mg/kg, route po; details: in vivo
[25] = AUClast in Wistar rat at 0.3 mg/kg,iv measured upto 24 hrs by HPLC-MS/MS analysis; assay type: ADME, organism-based; set-up: dose 0.3 mg/kg, time < 24 hrs, route iv; details: in vivo
[26] = Volume of distribution at steady state in Wistar rat at 0.3 mg/kg,iv measured upto 24 hrs by HPLC-MS/MS analysis; assay type: ADME, organism-based; details: in vivo, read-out: Vdss
[27] = Clearance in Wistar rat at 0.3 mg/kg,iv measured upto 24 hrs by HPLC-MS/MS analysis; assay type: ADME, organism-based; details: in vivo
[28] = Half life in Wistar rat at 0.3 mg/kg,iv measured upto 24 hrs by HPLC-MS/MS analysis; assay type: ADME, organism-based; details: in vivo
[29] = target: T1, Peroxisome proliferator-activated receptor gamma (Mus musculus); experiment: Inverse agonist activity at PPARgamma in NMRI-nu/nu mouse assessed as reduction in Fabp4 mRNA expression in adipose tissue at 50 mg/kg for 3 days and measured 6 hrs last dose by qPCR analysis; assay type: organism-based; details: time 3.0 day
[30] = target: T1, Peroxisome proliferator-activated receptor gamma (Mus musculus); experiment: Inverse agonist activity at PPARgamma in NMRI-nu/nu mouse assessed as fold reduction in Fabp4 mRNA expression in adipose tissue at 50 mg/kg for 3 days and measured 15 hrs last dose by qPCR analysis; assay type: organism-based; details: filed as inverse agonist, time 3.0 day
[31] = target: T1, Peroxisome proliferator-activated receptor gamma (Mus musculus); experiment: Inverse agonist activity at PPARgamma in NMRI-nu/nu mouse assessed as decrease in Acaab1 mRNA expression in adipose tissue at 50 mg/kg for 3 days and measured upto 15 hrs last dose by qPCR analysis; assay type: organism-based; details: filed as inverse agonist, time 3.0 day

Row | SMILES | remaining at 4 h, 10000 µM [1] [%] | Cmax [2] [nM] | remaining at 24 h, 10000 µM [4] [%] | CLint scaled at 1 µM [5] [mL/min/kg] | Activity [6] | remaining at 2 h, 10000 µM [7] [%] | IC50 [8] [nM] | remaining at 2 h, 10000 µM [10] [%] | remaining at 1 h, 10000 µM [11] [%] | IC50 [12] [nM] | remaining at 1 h, 10000 µM [14] [%] | Papp B→A at 2 h, 2 µM [15] [×10⁻⁶ cm/s] | remaining at 24 h, 10000 µM [17] [%] | CLint scaled at 1 µM [18] [mL/min/kg] | remaining at 4 h, 10000 µM [19] [%] | Emax [20] [%] | Tmax [22] [h] | solubility thermodynamic [23] [µg/mL] | AUC(0-t) at 24 h [24] [ng·h/mL] | further results
1 | CC(C)(O)c1ccc(NC(=O)c2cc(C(=O)NCc3ccc(F)c(F)c3)c(F)cc2Cl)cc1 | 100 | 3.2 | 100 | 15.5 | inactive | 100 | > 49800 | 100 | 100 | 40.4 | 100 | 17.1 | 100 | 29.3 | 100 | 71 | 1 | 6.55 (≈ 13.7 µM) | 1900 | half-life [3]: 0.19 h; Vd [9]: 1.8 L/kg; AUClast [13]: 0.18 kg·h/L; Activity [16]: Active; clearance [21]: 93.3 mL/min/kg
2 | Cc1cc(OC(F)F)ccc1NC(=O)c1cc(C(=O)NCc2ccc(F)cc2)c(F)cc1Cl | 46.5 | 2100 | 51.6 | 12.7 | inactive | 56.4 | 14700 | 77.8 | 93 | 19.4 | 74.8 | 23.8 | 32 | 28.8 | 71 | 55 | 7 | 0.1 (≈ 0.208 µM) | 12000 | AUClast [25]: 1.6 kg·h/L; Vd [26]: 2.7 L/kg; clearance [27]: 10.3 mL/min/kg; half-life [28]: 4.8 h; Activity [29]: inactive; Activity [30]: Active; Activity [31]: Active
